System: CD-1 mice
Experiment: Expression of luciferase induced by lipid nanoparticles in mice (bioluminescence)
Format: in vivo, mouse
Settings: luciferase mRNA LNP
Description: To further assess potency of expression and metabolic stability of lipids of the disclosure, expression of luciferase was measured following administration to rodents of a nanoparticle of the disclosure comprising an mRNA containing luciferase.
Lipid nanoparticles including DSPC as a phospholipid, cholesterol as a structural lipid, Compound I as a PEG lipid, an ionizable amino lipid of Formula (II), and an mRNA encoding luciferase were intravenously administered to CD-1 mice and Sprague Dawley rats. […]

**Q.** Which “Total Whole Body Flux @ 6 h (p/s)” value does the source give for `CCCCCCCCC(CCCCCCCC)OC(=O)CCCCCCCN(CCCCCCCC(=O)OCC(CCCC)CCCCCCC)CCCNc1c(NC)c(=O)c1=O` (stereo not shown) [Compound 10] here?
**A.** 4.6E+09 p/s

From US20240226025A1, “POLYNUCLEOTIDES ENCODING METHYLMALONYL-COA MUTASE FOR THE TREATMENT OF METHYLMALONIC ACIDEMIA” (ModernaTX, Inc., priority 2021, published 2024)
